Experimental data reported in patent US8940936B2, “Aryloxy phenoxy acrylic compound having HIF-1 inhibition activity, method for preparing same, and pharmaceutical composition containing same as an active ingredient” (Korea Research Institute of Bioscience and Biotechnology, priority 2010, dated 2015).
Where “and” joins values, the source holds several entries; their conditions need not be identical. Identical values can stand only once.

Experiments:
[1] = Mouse weight changes and symptoms, repeated intravenous administration (HCT116 model); type: in vivo; conditions: for Mouse weight changes (%): iv once a day, Example 1 30 mg/kg, topotecan 2 mg/kg
Description: Female nude mice at 6 weeks (BALB/c nu/nu, Charles River) were raised in a germ-free facility where temperature and humidity were maintained at proper levels during the whole experimental period. After anesthetizing each mouse, the human rectal cancer cell line HCT116 was transplanted in rectal tissues at the density of 4×10^7 cells/mouse, and then the opened rectum was sealed with surgical clips. After transplanting the rectal cancer cell line, the tumor volume was measured with calipers. When the tumor volume reached 54.5 mm^3, the compound of the present invention prepared in example 1 was treated thereto. Particularly, for the experimental group, the compound of example 1 was dissolved in the solvent composed of saline (80%), DMAC (10%), and tween 80 (10%), which is indicated as ‘solvent A’ hereinafter, at the concentration of 30 mg/kg. The prepared compound solution was intravenously administered to the experimental group mice once a day at the dose of […]. The control was treated with the solvent A only without the compound once a day via oral administration at the dose of 15 ml/kg. The comparative group was treated with the solvent A containing topotecan (2 mg/kg) via intravenous injection once a day at the dose of 15 ml/kg. The weight and the tumor volume were measured once a day on day 0, 2, 3, 4, 5, 6, and 8.
Tumor volume was calculated by the following mathematical formula 1. To investigate the toxicity according to the repeated intravenous administration of the compound of example 1, mouse weight changes were observed and presented in Table 3. Inhibition rate (%) in Table 4 was calculated by the following mathematical formula 2, which indicates the inhibition of tumor growth by the compound presented by %. Tumor Volume(mm^3)=(major axis length of tumor cells, mm)×(minor axis length of tumor cells, mm)^2×0.5 [Mathematical Formula 1] Inhibition Rate (%)=[(Tumor Volume of Control−Tumor Volume of Experimental Group)/(Tumor Volume of Control)]×100 [Mathematical Formula 2]

[2] = tested on: human kidney cancer cell line Caki-1; assay: In vivo anticancer activity, intravenous injection 2, Caki-1 kidney cancer in nude mice; parameters: species or system mouse; conditions: Example 1 20 mg/kg/day, topotecan 2 mg/kg/day; for Tumor volume (mm^3) / Tumor weight: iv; for Inhibition rate (%) of tumor volume / Inhibition rate (%) of tumor weight: vs control; for Tumor weight: day 14 (final day)
Description: To evaluate the inhibition effect of the compound prepared in example 1 administered via intravenous injection on the growth of kidney cancer, in vivo anticancer activity in mouse was measured. Particularly, nude-mice were grouped for experimental and control groups (5 mice per group). Changes in body weight, tumor volume, and tumor weight were measured to evaluate in vivo anticancer activity.
Female nude mice at 6 weeks (BALB/c nu/nu, Charles River) were raised in a germ-free facility where temperature and humidity were maintained at proper levels during the whole experimental period. After anesthetizing each mouse, the human kidney cancer cell line Caki-1 was transplanted in kidney tissues at the density of 4×10^7 cells/mouse, and then the opened kidney was sealed with surgical clips. After transplanting the kidney cancer cell line, the tumor volume was measured with calipers. When the tumor volume reached 52.7 mm^3, the compound of the present invention prepared in example 1 was treated thereto. Particularly, for the experimental group, the compound of example 1 was dissolved in the solvent composed of cremophor (10%), DMAC (10%), and pH 10 buffer […], which is indicated as ‘solvent B’ hereinafter, at the concentration of 20 mg/kg. The prepared compound solution was intravenously administered to the experimental group mice once a day at the dose of […]. The control was treated with the solvent B only without the compound once a day via oral administration at the dose of 15 ml/kg. The comparative group was treated with the solvent B containing topotecan (2 mg/kg) via intravenous injection once a day at the dose of 15 ml/kg. The weight and the tumor volume were measured once a day on day 0, 2, 4, 7, 9, 11, and 14.
Tumor volume was calculated by the mathematical formula 1 of Experimental Example 4. To investigate the toxicity according to the repeated intravenous administration of the compound of example 1, mouse weight changes were observed and presented in Table 5. Inhibition rate (%) in Table 6 was calculated by the mathematical formula 2, which indicates the inhibition of tumor growth by the compound presented by %.

[3] = tested on: B16F10 melanoma cell line; assay: Tumor growth, B16F10 melanoma in C57BL mice, intraperitoneal administration; type: in vivo, mouse; conditions: Example 1 20 mg/kg/day, topotecan 2 mg/kg/2 day; for Tumor volume changes (mm^3): ip; for Inhibition rate (%) of tumor volume: vs control
Description: (§1) Particularly, the experimental group composed of 5 female mice (C57BL) at 6 weeks was transplanted with B16F10 melanoma cell line. After the cancer cells were grown, the mice were treated with the compound of formula 1 via intraperitoneal injection at the dose of […] for 5 days. Inhibition of angiogenesis and the tumor growth were observed. In the meantime, the control group was treated with the mixed solution comprising 10% DMAC, 10% cremophor and 80% buffer (pH 10) every day. The comparative group was treated with topotecan at the dose of 2 mg/kg once every other day. Weight changes and the newly generated blood vessels were measured and the results are shown in Table 7, Table 8, FIG. 7, and FIG. 8. The tumor volume shown in Table 8 was calculated by the mathematical formula 1 of experimental example 4 and the inhibition rate was calculated by the mathematical formula 2 of experimental example 4.

[4] = Mouse weight changes and symptoms, intraperitoneal administration (B16F10 angiogenesis experiment); type: in vivo; conditions: for Mouse weight changes (%): ip, Example 1 20 mg/kg/day, topotecan 2 mg/kg/2 day
Description: as §1

[5] = tested on: B16F10 melanoma cell line; assay: Cancer metastasis inhibition activity, B16F10 melanoma lung colonies in C57BL mice; type: in vivo, mouse; conditions: Example 1 20 mg/kg/day, topotecan 2 mg/kg/2 day; for Metastasis colony number: day 12, ip; for Metastasis inhibition rate (%): day 12, vs control
Description: Particularly, the experimental group composed of 6 female mice (C57BL) at 6 weeks was transplanted with B16F10 melanoma cell line. After the cancer cells were grown, the mice were treated with the compound of formula 1 via intraperitoneal injection at the dose of […] every day for 12 days. Inhibition of angiogenesis and the tumor growth were observed. In the meantime, the control group was treated with purified water every day. The comparative group was treated with topotecan at the dose of 2 mg/kg once every other day. Weight changes and cancer metastasis were measured and the results are shown in Table 9, Table 10, and FIG. 10.
As shown in Table 10 and FIG. 10, the mice were sacrificed on the last day of experiment (day 12) and then cancer colonies in lung were counted by the naked eye.

Mouse weight changes (%) ([1]; day 0) | Mouse weight changes (%) ([1]; day 2) | Mouse weight changes (%) ([1]; day 3) | Mouse weight changes (%) ([1]; day 4) | Mouse weight changes (%) ([1]; day 5) | Mouse weight changes (%) ([1]; day 6) | Mouse weight changes (%) ([1]; day 8) | Compound | Tumor volume (mm^3) ([2]; day 0) | Tumor volume (mm^3) ([2]; day 2) | Inhibition rate (%) of tumor volume ([2]; day 2) | Tumor volume (mm^3) ([2]; day 4) | Inhibition rate (%) of tumor volume ([2]; day 4) | Tumor volume (mm^3) ([2]; day 7) | Inhibition rate (%) of tumor volume ([2]; day 7) | Tumor volume (mm^3) ([2]; day 9) | Inhibition rate (%) of tumor volume ([2]; day 9) | Tumor volume (mm^3) ([2]; day 11) | Inhibition rate (%) of tumor volume ([2]; day 11) | Tumor weight [2] | Tumor volume (mm^3) ([2]; day 14) | also measured
100.0 ± 0.0% | 101.7 ± 1.0% | 101.8 ± 1.1% | 103.2 ± 5.4% | 99.1 ± 1.4% | 98.7 ± 1.7% | 95.6 ± 1.4% | CC[C@@]1(O)C(=O)OCc2c1cc1n(c2=O)Cc2cc3c(CN(C)C)c(O)ccc3nc2-1 [topotecan, reference compound] | 0.0 ± 0.0 mm^3 | 16.7 ± 2.3 mm^3 | 20.1% | 38.7 ± 4.8 mm^3 | 26.6% | 67.8 ± 8.6 mm^3 | 33.8% | 88.5 ± 19.6 mm^3 | 40.6% | 120.9 ± 36.0 mm^3 | 40.9% | 472.4 ± 137.6 mg | 156.9 ± 51.3 mm^3 | Inhibition rate (%) of tumor volume ([2]; day 14): 45.8%; Inhibition rate (%) of tumor weight ([2]; day 14): 48.0%; Tumor volume changes (mm^3) ([3]; day 0): 0.0 ± 0.0 mm^3; Tumor volume changes (mm^3) ([3]; day 3): 20.9 ± 2.6 mm^3; Inhibition rate (%) of tumor volume ([3]; day 3): 37.4%; Tumor volume changes (mm^3) ([3]; day 4): 27.1 ± 2.3 mm^3; Inhibition rate (%) of tumor volume ([3]; day 4): 42.4%; Tumor volume changes (mm^3) ([3]; day 5): 42.9 ± 4.5 mm^3; Inhibition rate (%) of tumor volume ([3]; day 5): 45.4%; Mouse weight changes (%) ([4]; day 0): 100.0 ± 0.0%; Mouse weight changes (%) ([4]; day 2): 101.2 ± 0.6%; Mouse weight changes (%) ([4]; day 5): 103.7 ± 1.4%; Metastasis colony number [5]: 148.3 ± 49.4; Metastasis inhibition rate (%) [5]: 51.7%
100.0 ± 0.0% | 96.5 ± 2.9% | 94.7 ± 2.3% | 96.0 ± 3.5% | 100.3 ± 1.5% | 101.4 ± 2.5% | 99.9 ± 2.3% | COC(=O)c1cccc(NC(=O)/C=C/Oc2ccc(C34CC5CC(CC(C5)C3)C4)cc2)c1 [Example 1, (E)-3-[3-(4-Adamantan-1-yl-phenoxy)-acryloylamino]-benzoic acid methyl ester] | 0.0 ± 0.0 mm^3 | 17.1 ± 2.0 mm^3 | 18.4% | 41.4 ± 13.5 mm^3 | 21.6% | 77.6 ± 11.8 mm^3 | 24.2% | 107.0 ± 18.5 mm^3 | 28.2% | 141.9 ± 14.8 mm^3 | 30.6% | 640.0 ± 61.8 mg | 200.2 ± 34.2 mm^3 | body weight on day 8 compared with control ([1]; 30 mg/kg iv, nude mice): no significant weight loss; symptoms during repeated intravenous administration ([1]; 30 mg/kg iv, nude mice): no specific symptom was observed; Inhibition rate (%) of tumor volume ([2]; day 14): 30% and 30.9%; Inhibition rate (%) of tumor weight ([2]; day 14): 29.6%; Tumor volume changes (mm^3) ([3]; day 0): 0.0 ± 0.0 mm^3; Tumor volume changes (mm^3) ([3]; day 3): 26.8 ± 3.6 mm^3; Inhibition rate (%) of tumor volume ([3]; day 3): 19.7%; Tumor volume changes (mm^3) ([3]; day 4): 36.4 ± 4.8 mm^3; Inhibition rate (%) of tumor volume ([3]; day 4): 22.5%; Tumor volume changes (mm^3) ([3]; day 5): 55.8 ± 5.8 mm^3; Inhibition rate (%) of tumor volume ([3]; day 5): 28.9%; body weight on the final day of observation (day 5) compared with control ([4]; 20 mg/kg ip, C57BL mice): not significantly reduced; symptoms during repeated intraperitoneal injection ([4]; 20 mg/kg ip, C57BL mice, 5 days): no specific symptom was observed; Mouse weight changes (%) ([4]; day 0): 100.0 ± 0.0%; Mouse weight changes (%) ([4]; day 2): 102.6 ± 1.6%; Mouse weight changes (%) ([4]; day 5): 107.6 ± 3.9%; Metastasis colony number [5]: 207 and 207.0 ± 47.5; Metastasis inhibition rate (%) [5]: 32.5%
